Source: US3979511A, “Inhibitors of reverse transcriptase enzymes” (Abbott Laboratories, priority 1974, dated 1976)
Values belong to the compound of their own block, whether it stands above or below them.

What was measured:
[1] = target: T1, reverse transcriptase of Rous sarcoma virus (Rous sarcoma virus - Prague C, UniProt P03354); test: Inhibition of reverse transcriptase activity in RSV particles (3H-thymidine triphosphate incorporation); format: biochemical; details: for inhibition at 400 µg/mL: 400 μg/ml., read-out: Percent Inhibition
T1 construct: alpha/beta heterodimer cut from Gag-Pol polyprotein; 3H-TTP incorporation
T1 sequence (P03354 709-1567): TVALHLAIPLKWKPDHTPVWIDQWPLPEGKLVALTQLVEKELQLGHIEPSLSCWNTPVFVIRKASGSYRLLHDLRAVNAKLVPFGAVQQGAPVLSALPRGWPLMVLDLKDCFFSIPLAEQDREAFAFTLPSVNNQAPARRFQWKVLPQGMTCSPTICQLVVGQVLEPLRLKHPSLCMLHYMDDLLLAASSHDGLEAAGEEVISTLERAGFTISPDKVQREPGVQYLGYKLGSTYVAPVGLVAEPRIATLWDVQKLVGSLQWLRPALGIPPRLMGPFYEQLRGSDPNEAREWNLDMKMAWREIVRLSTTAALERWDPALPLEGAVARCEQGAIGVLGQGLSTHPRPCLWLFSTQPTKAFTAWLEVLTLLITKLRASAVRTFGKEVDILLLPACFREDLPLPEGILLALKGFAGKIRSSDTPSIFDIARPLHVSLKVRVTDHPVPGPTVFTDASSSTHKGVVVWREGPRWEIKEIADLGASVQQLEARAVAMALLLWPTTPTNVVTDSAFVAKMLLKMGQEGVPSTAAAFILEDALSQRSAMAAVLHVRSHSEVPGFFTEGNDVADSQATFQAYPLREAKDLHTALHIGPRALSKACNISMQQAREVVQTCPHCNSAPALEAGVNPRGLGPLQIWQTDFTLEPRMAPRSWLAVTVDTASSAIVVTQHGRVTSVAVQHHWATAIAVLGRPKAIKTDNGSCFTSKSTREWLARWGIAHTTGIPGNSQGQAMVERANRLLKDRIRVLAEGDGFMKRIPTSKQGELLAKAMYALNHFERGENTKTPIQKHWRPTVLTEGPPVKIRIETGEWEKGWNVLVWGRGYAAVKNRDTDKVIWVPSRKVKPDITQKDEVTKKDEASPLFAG
Experimental: Inhibition was directly related to drug concentration. […] Reverse transcriptase activities were measured from the incorporation of ^3 H-thymidine triphosphate into trichloroacetic acid insoluble counts according to a published method (Nature, 227, 563 (1970). The drug was dissolved in dimethylsulfoxide at a concentration of 10 mg./ml. ##SPC3##
Degrees of the inhibition are listed below in Table 1.

[2] = test system: Rous sarcoma virus; test: Blocking of transformation (focus formation) of chick embryonic fibroblasts by Rous sarcoma virus in tissue culture; format: cell-based
Experimental: In tissue culture, the effect of 9-0-methyloximinyl erythromycin A on the blocking of transformation of chick embryonic fibroblasts by Rous sarcoma virus is shown in Table 2. […] The assay was carried out according to a published method (J. Gen. Virol. I, 85 (1970).

[3] = test system: Rous sarcoma virus; test: Mortality of chicks infected intra-abdominally with Rous sarcoma virus; format: in vivo, chickens; details: for Probability (Fisher's exact probability for proportions): Virus + Drug I vs Virus; for Alive / Dead: Virus + Drug I, 200 mg./kg. by gavage every other day, 25 birds per group
Text: (§1) To test the effectiveness of the present compounds, 12-day-old Cofal negative chicks were used. The chicks were purchased from SPAFA as 8-day-old embryonated eggs for the tests and comparison of the effectiveness of the inhibitors of the present invention. The chicks were divided into four groups of 25 birds per group:
(§2) Group 1 - Drug I control (9-0-methyloximinyl erythromycin A;
Group 2 - Drug I + Rous sarcoma virus (RSV);
Group 3 - Rous sarcoma virus (infection control);
Group 4 - Normal control (sham media)
(§3) The medication with the virus and drug combinations was started by gavage two days before the chicks were infected with the virus. The chickens treated with Drug I, 9-0-methyloximinyl erythromycin A, received 200 mg./kg. every other day for the entire 35 days of the experiment. Each week the chickens were weighed and the drug level was adjusted to accommodate the new weight.
On the third day the chickens in Groups 2 and 3 were infected intra-abdominally with Rous sarcoma virus (RSV). The inoculum received by each bird was 0.2 ml. and contained approximately 100,000 viral particles. Group 4 received a sham inoculation of 0.2 ml. of sterile tissue culture media.
(§4) The chickens were observed daily for the 35 days that the experiment was allowed to continue.
(§5) On the last day, the 35th day, all surviving chickens were sacrificed, weighed and autopsied.
The results of the experiment are provided in Table 3 which provides the following results: "Statistical Evaluation of Mortality of the Chickens".

[4] = Drug control group: mortality of uninfected chicks given drug; format: in vivo, chickens; details: Drug I control, 200 mg./kg. by gavage every other day, 25 birds
Text: as §1, §2, §3, §4, §5

[5] = period 4 after infection (period = 6 days)
[6] = period 5 after infection (period = 6 days)
[7] = period 6 after infection (period = 6 days)

inhibition at 400 µg/mL [1]: 69%
Structure (SMILES): CC[C@H]1OC(=O)[C@H](C)[C@@H](O[C@H]2C[C@@](C)(OC)[C@@H](O)[C@H](C)O2)[C@H](C)[C@@H](O[C@@H]2O[C@H](C)C[C@H](N(C)C)[C@H]2O)[C@](C)(O)C[C@@H](C)C(=NOCc2ccc(Cl)c(Cl)c2)[C@H](C)[C@@H](O)[C@H]1C [9-O-(3,4-dichlorobenzyloximinyl) erythromycin B]

inhibition at 400 µg/mL [1]: 52%
Structure (SMILES): CCON=C1[C@H](C)C[C@@](C)(O)[C@H](O[C@@H]2O[C@H](C)C[C@H](N(C)C)[C@H]2O)[C@@H](C)[C@H](O[C@H]2C[C@@](C)(OC)[C@@H](O)[C@H](C)O2)[C@@H](C)C(=O)O[C@H](CC)[C@@](C)(O)[C@H](O)[C@H]1C [9-O-ethyloximinyl erythromycin A]

Structure (SMILES): CC[C@H]1OC(=O)[C@H](C)[C@@H](O[C@H]2C[C@@](C)(OC)[C@@H](O)[C@H](C)O2)[C@H](C)[C@@H](O[C@@H]2O[C@H](C)C[C@H](N(C)C)[C@H]2O)[C@](C)(O)C[C@@H](C)C(=NOC)[C@H](C)[C@@H](O)[C@]1(C)O [9-O-methyloximinyl erythromycin A]
inhibition at 400 µg/mL [1]: 57%
IC50 ([1]; RSV particles, drug dissolved in dimethylsulfoxide, read-out: Fifty percent inhibition of reverse transcriptase activity (converted)): ~459 µM
inhibition at 1 µg/mL ([2]; Rous sarcoma virus, Fibroblast, Drug Concentration 1 μg/ml): 39%
inhibition at 5 µg/mL ([2]; Rous sarcoma virus, Fibroblast, Drug Concentration 5 μg/ml): 53%
inhibition at 10 µg/mL ([2]; Rous sarcoma virus, Fibroblast, Drug Concentration 10 μg/ml): 95%
inhibition of focus formation ([2]; drug levels of 5-10 μg/ml): at least 50%
tumors in survivors at sacrifice and autopsy ([3]; RSV-infected birds that received Drug I 200 mg./kg. every other day, 35th day): had tumors in evidence
Probability (Fisher's exact probability for proportions) ([3]; period 4 after infection): .02
Probability (Fisher's exact probability for proportions) ([3]; period 5 after infection): .006
Probability (Fisher's exact probability for proportions) ([3]; period 6 after infection): .036
Alive [3, 5]: 18
Dead [3, 5]: 7
Alive [3, 6]: 13
Dead [3, 6]: 12
Alive [3, 7]: 8
Dead [3, 7]: 17
Alive ([4]; period 4 (period = 6 days)): 25
Dead ([4]; period 4 (period = 6 days)): 0
Alive ([4]; period 5 (period = 6 days)): 25
Dead ([4]; period 5 (period = 6 days)): 0
Alive ([4]; period 6 (period = 6 days)): 25
Dead ([4]; period 6 (period = 6 days)): 0

inhibition at 400 µg/mL [1]: 47%
Structure (SMILES): CCCON=C1[C@H](C)C[C@@](C)(O)[C@H](O[C@@H]2O[C@H](C)C[C@H](N(C)C)[C@H]2O)[C@@H](C)[C@H](O[C@H]2C[C@@](C)(OC)[C@@H](O)[C@H](C)O2)[C@@H](C)C(=O)O[C@H](CC)[C@@](C)(O)[C@H](O)[C@H]1C [9-O-propyloximinyl erythromycin A]
